Source: ChEMBL document CHEMBL3044873, “Aryl N, N-Dimethylcarbamates, Synergists for Organophosphorus Insecticides against Organophos-phorusresistant Rice Stem Borers” (J Pestic Sci, 1990)

Key:
[1] = system: Chilo suppressalis; experiment: Potentiation of pirimiphos-methyl-induced insecticidal activity against OP-resistant Chilo suppressalis Hata-f (rice stem borer) assessed as synergistic ratio at 1:10 pirimiphos-methyl to compound ratio relative to pirimiphos-methyl alone; type: functional
[2] = system: Chilo suppressalis; experiment: Inhibition of fenitrothion-detoxification activities by hydrolysis in OP-resistant Chilo suppressalis Hata-f (rice stem borer); type: organism-based; settings: read-out: I50
[3] = system: fenitrothion-detoxification activity by hydrolysis; experiment: Inhibition of fenitrothion-detoxification activities by hydrolysis in OP-resistant Chilo suppressalis Hata-f (rice stem borer) at 1x10'-4M (reference value: 0%); type: organism-based; settings: probe fenitrothion
[4] = system: fenitrothion-detoxification activity by hydrolysis; experiment: Inhibition of fenitrothion-detoxification activities by hydrolysis in OP-resistant Chilo suppressalis Hata-f (rice stem borer) at 1x10'-5M (reference value: 0%); type: organism-based; settings: probe fenitrothion
[5] = system: fenitrothion-detoxification activity by hydrolysis; experiment: Inhibition of fenitrothion-detoxification activities by hydrolysis in OP-resistant Chilo suppressalis Hata-f (rice stem borer) at 1x10'-6M (reference value: 0%); type: organism-based; settings: probe fenitrothion
[6] = system: fenitrothion-detoxification activity by hydrolysis; experiment: Inhibition of fenitrothion-detoxification activities by hydrolysis in OP-resistant Chilo suppressalis Hata-f (rice stem borer) at 1x10'-7M (reference value: 0%); type: organism-based; settings: probe fenitrothion
[7] = system: Chilo suppressalis; experiment: Inhibition of fenitrothion-detoxification activities by binding protein in OP-resistant Chilo suppressalis Hata-f (rice stem borer); type: organism-based; settings: read-out: I50
[8] = system: fenitrothion-detoxification activity by binding protein; experiment: Inhibition of fenitrothion-detoxification activities by binding protein in OP-resistant Chilo suppressalis Hata-f (rice stem borer) at 1x10'-4M (reference value: 0%); type: organism-based; settings: in vivo, probe fenitrothion
[9] = system: fenitrothion-detoxification activity by binding protein; experiment: Inhibition of fenitrothion-detoxification activities by binding protein in OP-resistant Chilo suppressalis Hata-f (rice stem borer) at 1x10'-5M (reference value: 0%); type: organism-based; settings: in vivo, probe fenitrothion
[10] = system: fenitrothion-detoxification activity by binding protein; experiment: Inhibition of fenitrothion-detoxification activities by binding protein in OP-resistant Chilo suppressalis Hata-f (rice stem borer) at 1x10'-6M (reference value: 0%); type: organism-based; settings: in vivo, probe fenitrothion
[11] = system: fenitrothion-detoxification activity by binding protein; experiment: Inhibition of fenitrothion-detoxification activities by binding protein in OP-resistant Chilo suppressalis Hata-f (rice stem borer) at 1x10'-7M (reference value: 0%); type: organism-based; settings: in vivo, probe fenitrothion
[12] = system: Chilo suppressalis; experiment: Potentiation of fenitrothion-induced insecticidal activity against OP-susceptible Chilo suppressalis (rice stem borer) S strain assessed as synergistic ratio at 1:10 fenitrothion to compound ratio relative to fenitrothion alone; type: functional
[13] = system: Chilo suppressalis; experiment: Potentiation of pirimiphos-methyl-induced insecticidal activity against OP-resistant Chilo suppressalis Hata-f (rice stem borer) assessed as synergistic ratio at 1:5 pirimiphos-methyl to compound ratio relative to pirimiphos-methyl alone; type: functional
[14] = system: Chilo suppressalis; experiment: Potentiation of pirimiphos-methyl-induced insecticidal activity against OP-resistant Chilo suppressalis Hata-f (rice stem borer) assessed as synergistic ratio at 1:1 pirimiphos-methyl to compound ratio relative to pirimiphos-methyl alone; type: functional
[15] = system: Chilo suppressalis; experiment: Potentiation of fenitrothion-induced insecticidal activity against OP-resistant Chilo suppressalis Hata-f (rice stem borer) assessed as synergistic ratio at 1:10 fenitrothion to compound ratio relative to fenitrothion alone; type: functional
[16] = system: Chilo suppressalis; experiment: Resistance ratio, LC50 for OP-resistance Chilo suppressalis Hata-f (rice stem borer) to OP-susceptible Chilo suppressalis S (rice stem borer) strain; type: functional
[17] = system: Chilo suppressalis; experiment: Insecticidal activity against OP-resistance Chilo suppressalis Hata-f (rice stem borer) assessed as mortality measured after 24 hr; type: functional
[18] = system: Chilo suppressalis; experiment: Insecticidal activity against OP-susceptible Chilo suppressalis S (rice stem borer) strain assessed as mortality measured after 24 hr; type: functional

Row | Compound | fold change (FC) [1] | fold change (FC) [12] | fold change (FC) [13] | fold change (FC) [14] | fold change (FC) [15] | RatioLC50 [16] | LD50 [17] | LD50 [18] | also measured
1 | Cc1cc(OC(=O)N(C)C)nc(N(C)C)n1 | 1061 | 1 | 751 | 234 | 38 | – | – | – | IC50 [2]: 4.5 µM; inhibition at 100 µM [3]: 78%; inhibition at 10 µM [4]: 66.7%; inhibition at 1 µM [5]: 22.2%; inhibition at 0.1 µM [6]: 0%; IC50 [7]: 3.3 µM; inhibition at 100 µM [8]: 78.4%; inhibition at 10 µM [9]: 75%; inhibition at 1 µM [10]: 19.3%; inhibition at 0.1 µM [11]: 0%
2 | Cc1cc(OC(=O)N(C)C)ccc1[N+](=O)[O-] | 207 | 0.7 | 196 | 67 | 23 | – | – | – | –
3 | COP(=S)(OC)Oc1ccc([N+](=O)[O-])c(C)c1 [FENITROTHION] | – | – | – | – | – | 38 | 69 mg/kg | 1.8 mg/kg | –
4 | COP(=O)(OC)Oc1ccc([N+](=O)[O-])c(C)c1 [FENITROXON] | – | – | – | – | – | 23 | 27 mg/kg | 1.2 mg/kg | –
5 | CCN(CC)c1nc(C)cc(OP(=S)(OC)OC)n1 [PIRIMIPHOS METHYL] | – | – | – | – | – | 1202 | 1800 mg/kg | 1.5 mg/kg | –
